According to US7339042B2, “Gene delivery to tumors” (University of Florida Research Foundation, Inc., priority 2003, dated 2008):

Key:
A172 cells = assay: Fluorescein peptide uptake by A172 cells, fluorescence microscopy; format: cell-based, human; settings: 30 uM peptide, 1 hr, 37° C., serum containing media
Experimental: For fluorescent microscopy studies cells were plated on 2 chamber cover slips at a density of 1×10^4 cells/chamber. Cells were incubated with […] peptide for 30 minutes in completed media, washed with PBS 3× and imaged using a Nikon Axiophot inverted fluorescent microscope. Images were taken using a Spot CCD camera.
Synthetic peptides derived from HIV Tat (Tat) and the Drosophila antennaepedia homeodomain (ANT) were tested for cell uptake by A172 cells (human glioblastomas). The peptides were labeled at the N-terminus with fluorescein. Cells were incubated with 30 uM peptide at 37° C. in serum containing media. Fluorescent micrographs were taken after 1 hr incubation at 37° C. […] The size of the peptide was increased by added an Mdm-2 binding domain derived from P14ARF. This domain was added to the C-terminus of the Tat and ANT peptides. The P14ARF domain was also placed at the N-terminus followed by the Tat peptide. All the peptides were labeled at the N-terminus with fluorescein and cell incubations similar to the Tat and ANT peptides were tested for cellular uptake. […] Both the bright field and fluorescent micrographs show altered cell morphology.

[1] = system: endothelial cells and smooth muscle cells of rat cerebral arteries; assay: Uptake of fluorescent peptides by pressure-mounted rat cerebral arteries; format: cell-based; settings: extraluminal addition
RG2 cells [2] = assay: Kinetic uptake studies of fluorescent peptides; format: cell-based, rat
Experimental: A172 cells, T98G cells and RG2 cells were purchased from ATCC. Cells were cultured under standard conditions. For cell uptake studies, each cell type was plated in 6 well plates at 5×10^5 cells per well 24 hours before the experiment. Increasing concentration of fluorescent peptides from 0.5 μM to 10 μM was prepared in complete medium. Cells were incubated with each concentration for 5, 10, 20 and 30 minutes at 37° C. followed by removal and washing of cells with 4° C. PBS 3×. Cells were solubilized in 0.2 ml 1% TX-100, PBS, pH 7.4. Fluorescence was measured using a fluorescent plate reader. Concentrations were determined by standard curve and normalized to μg of cellular protein.
A172, T98G and RG2 cells were plated in 6 well plates and incubated with 1, 2.5, 5 and 10 uM fluorescein labeled peptides for 5, 15, 30 and 60 minutes. Cells were washed 3× with PBS, removed from the plates with trypsin, centrifuged for 2 minutes at 2K rpm in a desk top centrifuge, supernatants discarded and the cell pellets were solubilized in 1% TX-100, PBS, pH 7.4. Fluorescence was measured in a Perkin Elmer fluorimeter using ˜ex=480 nm and ˜em=520 nm with a 510 nm cut off filter. Amount of cell-associated protein was determined from the standard curve.
This peptide was further characterized with regard to dose response. […]

rat cerebral arteries [3] = assay: Vasodilation and vasoconstriction response of rat cerebral arteries before and after peptide; format: cell-based; settings: after vs before intraluminal peptide
Experimental: The blood vessels were put in culture described above and perfused with buffer of the same composition as cerebrospinal fluid. Vessel diameter was measured before and after administration of each reagent. 3 μM of each peptide was perfused through for 10 minutes followed by a 10 minute wash through. Vasoconstriction and vasodilation were determined for each vessel before peptide was applied. Perfusion was continued until the vessels relaxed to their original diamter (approximately 30 minutes). The vasoconstriction and vasodilation reponse was remeasured after the 10 minute wash through. The 60 mM KCl and 16 mM KCl conditions are […], respectively. Histamine and Bradykinin are endothelial cell vasodilators.
In some experiments, the arterial segments were denuded of endothelium by passing an air bubble through the lumen, thus exposing the smooth muscle cells to luminally administered peptides. Constriction to pressure and 60 mM KCl and dilation of arteries with myogenic tone to 16 mM KCl were used as benchmarks of functional arteries. Peptide containing PCSF was perfused intraluminally at an inlet pressure of 70 mmHg with the outlet open, for 20 min and then perfused with normal PCSF. This procedure ensures a 20 min of exposure of the arteries to the peptide.
(§1) Effect of peptide on endothelial and smooth muscle function was evaluated by histamine (0.3 and 1 μM) and bradykinin (0.5 μM) (endothelium-dependent vasodilators) and 16 and 60 mM KCl (results in dilation and constriction of arteries by hyperpolarizing and depolarizing smooth muscle, respectively). These drug solutions were added to the superfusate and applied to the arteries extraluminally for 10 to 15 min before and after intraluminal perfusion with peptides. Effects of these agents were expressed as percent change in myogenic tone (decrease for dilators and increase for constrictors). Experiments were concluded by exposing the arteries to calcium free PCSF to obtain the passive diameter. Cell viability was determined by adding H3334 (Hoechst viability stain, final concentration 1 μM) and propidium iodide (final concentration 1 μM) to the arteriograph after the peptide incubation. Fluorescent micrographs were taken of the vessels after incubation with peptides and following addition of the vital stains using Till Photonics imaging system (Martinsried, Germany).

RG2 cells [4] = assay: Fusion peptide cell killing, propidium iodide/FACS viability, RG2 cells; format: cell-based, rat; settings: peptides in complete media for 1 hr, Table 2
Experimental: (§2) Other experiments were performed using two glioma cell lines, i.e., T98G and RG2. 1×10^6 cells per well were incubated in 6-well plates with peptides in complete media for 1 hr. Cells were removed from the plate using a cell stripper and the percentage of viable cells was determined by staining with propidium iodide and analyzing by fluorescence activated cell sorting (FACS).
(§3) There are 4 conserved amino acid differences between the rat and human CDKI sequence. Both sequences were attached to Tat and tested for cell killing activity in the rat glioma RG2 cells. Also the effect of orientation of the Tat and CDKI domains were tested. RG2 cells were plated on 6 well plates at approximately 70% confluency. Each of the peptides was added to the wells with increasing concentration. After 1 hr, cells were removed from the plates, washed 2× with PBS, stained with propidium iodide and analyzed by FACS for viable cells.
(§4) Cell viability studies were performed by plating the cells under the same conditions as the uptake studies. Cells were incubated with fluorescent peptides for 1 hr at 37° C. The cells were removed from the plate using cell striper. They were labeled with propidium iodide and fluorescein-AM. Percent PI positive cells were determined by FACS.
(§5) The cytotoxicity of the chimeric peptides was characterized using a cell viability assay. Peptides were added to cells at a fixed concentration. After a 30-minute incubation, cells were removed from the plate, stained with propidium iodide and the % positive cells were determined by FACS (fluorescent activated cell scanning). The test conditions were Tat, ANT, Tat-P14ARF, ANT-P14ARF and P14ARF. T98G cells were tested along with RG2 cells and A172 cells.

[5] = as above; format: cell-based, rat; settings: peptides in complete media for 1 hr, Table 2
Experimental: as §2, §3, §4, §5

rat cerebral arteries [6] = assay: Cell viability staining of arteries (propidium iodide, H3334) after peptide; format: cell-based; settings: after treatment with peptide
Experimental: No PI statined smooth muscle cell nuclei were observed.
as §1

C[C@H](N)C(=O)NCC(=O)NCC(=O)NCC(=O)N[C@@H](Cc1ccc(O)cc1)C(=O)NCC(=O)N[C@@H](CCCNC(=N)N)C(=O)N[C@@H](CCCCN)C(=O)N[C@@H](CCCCN)C(=O)N[C@@H](CCCNC(=N)N)C(=O)N[C@@H](CCCNC(=N)N)C(=O)N[C@@H](CCC(N)=O)C(=O)N[C@@H](CCCNC(=N)N)C(=O)N[C@@H](CCCNC(=N)N)C(=O)N[C@@H](CCCNC(=N)N)C(=O)O [Tat]
staining pattern (cell uptake) (A172 cells): intracellular punctate
labeling of smooth muscle cells [1]: able to label the smooth muscle cells
uptake rate (RG2 cells [2]): more rapid uptake than TatP14ARF
endothelium-dependent dilation to histamine and bradykinin (rat cerebral arteries [3]): responsive to all stimuli
smooth muscle response to 60 and 16 mM KCl (rat cerebral arteries [3]): responsive to all stimuli
% Viable (RG2 cells [4]): ineffective
viability [5]: 94%
propidium iodide staining of blood vessels (rat cerebral arteries [6]): no PI stained nuclei
